Tests used:
[1] = target: MraY (Hydrogenivirga sp.) (Hydrogenivirga sp. 128-5-R1-1, UniProt Z9Y2G8N0L0); assay: MraY assay; format: biochemical
Description: Expression and purification of HyMraY. The gene mraY of Hydrogenivirga spp. 128-5-R1-1 was cloned with a N-terminal His6 tag into a pET22b vector. […] The proteins were purified using a nickel, cation exchange, and size exclusion chromatography.
MraY assay. MraY assay substrates, Park's nucleotide-N^ε-C6-dansylthiourea, neryl phosphate, were chemically synthesized according to the reported procedures.^7 Park's nucleotide-N^ε-C6-dansylthiourea (2 mM stock solution, 1.88 jiL), MgCl2 (0.5 M, 5 jiL), KCl (2 M, 5 jiL), Triton X-100 (0.5%, 5.63 jiL), Tris buffer (pH 8.0, 50 mM), neryl phosphate (0.1 M, 2.25 jiL), and inhibitor molecule (0-50 .ig/mL in Tris buffer) were placed in a 1.5 mL Eppendorf tube. […] (26° C.) and quenched with CHCl3 (100 jiL). […] The aqueous phase was assayed via reverse-phase HPLC.

[2] = system: DLD-1; assay: MTT cytotoxicity assay; format: cell-based; conditions: 72 h
Description: (§1) Cell lines. The human primary PDAC cell lines PANC-1 (ATCC CRL 1469); Capan-2 (ATCC HTB-80) and metastatic PDAC cell lines Capan-1 (ATCC HTB-79), AsPC-1 (ATCC CRL-1682), L1210 (ATCC CCL-219), KB (ATCC CCL-17), HeLa, SiHa (ATCC HTB-35), HCT-116 (ATCC CCL-247), DLD-1 (ATCC CCL221), hTERT-HPNE (ATCC CRL-4023), Vero (ATCC CCL-81) were purchased from the ATCC. The cell lines were cultured and maintained in the media as recommended by the supplier. The cell lines were regularly tested for mycoplasma contamination and authenticated. In addition to ATCC cell lines, Dr. Glazer's lab generated patient-derived PDAC cell line, PD002. PD002 Cells were maintained and cultured in DMEM medium supplemented with 20% FBS and 100 IU/mL penicillin and incubated at 37° C. with 5% CO2.
(§2) MTT cytotoxicity assay. To study the effect of treatment with DPAGT1 inhibitors on the growth and proliferation of cells, a fixed number of cells (5×10^4 cells/well, 196 μL) were plated in a 96 well plate. Into each well 5 μL of drug concentration was added. After 72 h of incubation with drugs at 37° C., 5% CO2, 10 μL of MTT solution (5 mg/mL in PBS) was added and incubated another 3 h at 37° C., 5% CO2. The medium was removed, and DMSO (200 μL/well) was added. Viability was assessed on the basis of cellular conversion of MTT into a purple formazan product. The absorbance of the colored formazan product was measured at 570 nm by BioTek Synergy HT Spectrophotometer.

[3] = system: HCT-116; assay: MTT cytotoxicity assay; format: cell-based; conditions: 72 h
Description: as §1, §2

[4] = system: HPNE; assay: MTT cytotoxicity assay; format: cell-based
Description: as §1, §2

[5] = system: KB; assay: MTT cytotoxicity assay; format: cell-based; conditions: 72 h
Description: as §1, §2

[6] = system: L1210; assay: MTT cytotoxicity assay; format: cell-based
Description: as §1, §2

[7] = system: PD002; assay: MTT cytotoxicity assay; format: cell-based
Description: as §1, §2

[8] = system: SiHa; assay: MTT cytotoxicity assay; format: cell-based; conditions: 72 h
Description: as §1, §2

[9] = system: Vero; assay: MTT cytotoxicity assay; format: cell-based
Description: as §1, §2

[10] = system: AsPC-1; assay: MTT cytotoxicity assay; format: cell-based, human; conditions: 72 h
Description: as §1, §2

[11] = system: Capan-2; assay: MTT cytotoxicity assay; format: cell-based, human; conditions: 72 h
Description: as §1, §2

[12] = system: PANC-1; assay: MTT cytotoxicity assay; format: cell-based, human; conditions: 72 h
Description: as §1, §2

[13] = system: Myocobacterium tuberculosis H37Rv, Mycobacterium avium 2285, Mycobacterium smegmatis (ATCC607); assay: Antimycobacterial activity (MIC); format: cell-based, Mycobacterium spp.; conditions: M. tuberculosis H37Rv, M. avium 2285, M. smegmatis (ATCC607)
[14] = system: PD002; assay: Kinetic proliferation assay (IncuCyte); format: cell-based
Description: Kinetic Proliferation Assay. To study the effect of treatment with DPAGT1 inhibitors on the growth and proliferation of cells, a fixed number of cells (2×10^4) were plated in multiple wells of a 96 well plate, incubated for 24 h to let cells settle down. Then, CPPB (5) was added (0-50 μM). Images were obtained every 4 h using an IncuCyte Live-Cell Imaging System (Essen BioScience, Ann Arbor, MI). After 72 h, cell proliferation was quantified using the metric phase object confluence (POC), a measurement of the area of the field of view that is covered by cells, which is calculated by the integrated software.

[15] = system: Snail; assay: Western blot of Snail in cervical cancer; format: cell-based; conditions: effective at 0.2 μM
[16] = system: E-cadherin; assay: Immunofluorescent staining of E-cadherin; format: cell-based
[17] = system: DPAGT1 gene; assay: RT-qPCR analyses of DPAGT1 expression level; format: cell-based; conditions: PD002
[18] = target: T1, AglH (M. jannaschii) (Methanocaldococcus jannaschii, UniProt Q58513); assay: AglH assay; conditions: read-out: IC50 AglH (M. jannaschii)
T1 sequence (Q58513 1-301): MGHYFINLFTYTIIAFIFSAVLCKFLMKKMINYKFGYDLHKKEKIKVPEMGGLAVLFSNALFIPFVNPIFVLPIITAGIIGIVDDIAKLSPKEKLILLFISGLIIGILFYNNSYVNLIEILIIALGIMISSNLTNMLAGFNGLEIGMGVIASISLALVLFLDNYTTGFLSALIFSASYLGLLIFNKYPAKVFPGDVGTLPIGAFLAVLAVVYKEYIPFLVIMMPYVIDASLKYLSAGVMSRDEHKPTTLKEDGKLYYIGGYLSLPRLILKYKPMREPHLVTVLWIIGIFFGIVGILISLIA

Sequence of MraY (Hydrogenivirga sp.) (Z9Y2G8N0L0 7-365 limits assumed): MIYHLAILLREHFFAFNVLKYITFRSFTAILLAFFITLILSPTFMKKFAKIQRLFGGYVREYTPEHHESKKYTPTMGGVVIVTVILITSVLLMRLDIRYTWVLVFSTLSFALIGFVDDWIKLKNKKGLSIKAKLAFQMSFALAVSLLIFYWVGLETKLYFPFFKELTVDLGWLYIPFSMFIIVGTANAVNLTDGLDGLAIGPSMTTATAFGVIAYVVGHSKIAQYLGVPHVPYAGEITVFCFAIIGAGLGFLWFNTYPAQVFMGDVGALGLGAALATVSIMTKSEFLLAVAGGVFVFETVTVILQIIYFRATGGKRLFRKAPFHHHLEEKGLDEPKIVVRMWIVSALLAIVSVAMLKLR

“(2S,3S,4S)-2-((1R)-2-Amino-1-((2S,5R)-5-(2,4-dioxo-3,4-dihydropyrimidin-1(2H)-yl)-4-hydroxy-3-methoxytetrahydrofuran-2-yl)-2-oxoethoxy)-3,4-dihydroxy-N-(4-(4-(4-(trifluoromethoxy)-phenyl)piperidin-1-yl)benzyl)-3,4-dihydro-2H-pyran-6-carboxamide [CPPB]” gave an IC50 [1] of 10.3 µM, an IC50 [2] of 25 µM and an IC50 [3] of 15 µM. For the same substance, the IC50 ([4]; MTT, 72 h) was greater than 50 µM, the “antiproliferative activity against HPNE” value ([4]; at 50 μM, normal pancreatic ductal cell) was “did not show antiproliferative activity” and the IC50 [5] was 35 µM. For the same substance, the IC50 ([6]; MTT, 72 h) was greater than 50 µM, the “antiproliferative activity against L1210” value ([6]; at 50 μM) was “did not show antiproliferative activity” and the “cell viability of PD002 (MTT reduction assay)” value ([7]; 50 μM) was “significantly decreased”. The IC50 ([7]; MTT, 72 h) was 35 µM, the IC50 [8] was 15 µM and the IC50 ([9]; MTT, 72 h) was greater than 50 µM. For the same substance, the “antiproliferative activity against Vero” value ([9]; at 50 μM, normal kidney cell) was “did not show antiproliferative activity”, the IC50 [10] was 25 µM and the IC50 [11] was 30 µM. The IC50 [12] was 35 µM, the MIC [13] was 6.25 to 12.5 mg/L and the “phase area confluence of PD002 culture after 72 h” value ([14]; 50 μM, same as at time 0 h, control (PBS) ca. 70%) was 10-13%. The “cell proliferation inhibited at time 72 h” value ([14]; 0.2-20 μM) was “ca. 20%”, the “Snail expression in SiHa” value [15] was “inhibited by treatment of CPPB in a concentration dependent manner” and the “E-cadherin expression level in PD002” value ([16]; 0.05-0.2 μM) was “not noticeably changed”. The “E-cadherin expression level in Panc-1” value ([16]; 0.05-0.2 μM) was “slightly increased”, the “E-cadherin expression levels of PD002, PANC-1, and HCT-116” value ([16]; 0.05-2.0 μM) was “not changed significantly” and the DPAGT1 gene expression [17] was “without significantly decreasing”. For the same substance, the IC50 [18] was 0.15 µM.
